Non-standard residues stand in square brackets, D forms with d. Residues, ends and D or L forms follow the SMILES beside them. Nle = CCCC[C@H](N)C(=O)O
How the values were obtained:
[1] = biological target: T1, β1 (caspase-like activity) of 20S proteasome (Homo sapiens, UniProt P28072); assay: 20S proteasome inhibitory activity, AMC fluorescent substrate Z-LLE-AMC; format: biochemical
T1 construct: purchased Bioscience (20S Proteasome StressXpress Assay Kit Gold)

[2] = biological target: β5 (chymotrypsin-like activity) of 20S proteasome (Homo sapiens, UniProt P28074); assay: 20S proteasome inhibitory activity, AMC fluorescent substrate Suc-LLVY-AMC
[3] = biological target: β2 (trypsin-like activity) of 20S proteasome (Homo sapiens, UniProt Q99436); assay: 20S proteasome inhibitory activity, AMC fluorescent substrate Bz-VGR-AMC
E. coli DHFR = biological target: T2, E. coli DHFR (Escherichia coli, UniProt P0ABQ4); assay: Thermal shift assay of affinity with forcedly expressed target protein in HeLa cells; format: binding; settings: bortezomib alone
T2 construct: expressed in transfected cells; host or cells: HeLa cells, transient transfection with pMIR DsRed-IRES-ecDHFR-HA-GFP

Row | Compound | IC50 ([1]; 20S proteasome 0.1 μg, 30 min preincubation, substrate 100 μM, 1 hour) [µM] | inhibitory activity against β1 ([1]; FIGS. 4A, 7A, compared with the original proteasome inhibitor alone) | IC50 [2] [µM] | IC50 [3] [µM] | interaction with E. coli DHFR (E. coli DHFR)
1 | CCCC[C@@H](C=O)NC(=O)[C@H](CC(C)C)NC(=O)[C@H](CC(C)C)NC(C)=O [ALLN] (Ac-Leu-Leu-[Nle]-aldehyde) | 12.4 | not significantly inhibited | 1.15 | 5.25 | 
2 | CC(C)C[C@H](NC(=O)[C@H](Cc1ccccc1)NC(=O)c1cnccn1)B(O)O [Bortezomib] |  |  |  |  | did not interact with E. coli DHFR
3 | CC(C)C[C@H](NC(=O)CNC(=O)c1cc(Cl)ccc1Cl)B(O)O [MLN2238] |  |  |  | 6.4 | 
